Assay results: patent US8545820B2, “Use of titanium-based materials as bactericides” (Savannah River Nuclear Solutions, LLC, priority 2010, dated 2013)

Experiments:
[1] = Aqueous solubility of the metal chloride salt; type: physicochemical
[2] = system: mammalian cells; conditions: metal ion alone; based on previous reports; cited from earlier work
[3] = system: Actinomyces naeslundii (An); assay: Planktonic bacterial growth suppression (OD at 595 nm, 24 h exposure); type: cell-based
Description: (§1) Set forth in Table 1 are the species of oral bacteria which were evaluated. These species are atiologic agents and periodontal disease, gingivitis, or caries that would lend themselves to treatment with a solid-phase metal titanate compound. […] All bacteria were cultured from frozen stocks expanded from ATCC cultures; the absence of contamination was verified at each thaw via Gram stain. All bacteria were grown over 24 h to mid-log phase before inoculating experimental cultures.
(§2) One hundred μL of the initial culture was plated in 96 well plate format number of bacterial cells present in a given volume of culture was determined by correlating OD reading of bacterial culture at 595 nm to the number of cells present. […] Prior to exposing bacteria to metal-titanate compounds, appropriate dilutions of each bacterial species were made so that metal-titanate compounds are consistently exposed to 3.56E9 bacteria for all species tested. This strategy assured the same cell to titanate particle ratio, allowed repeatability, and allowed log growth phase throughout the 24 h time when bacteria were exposed to the titanates. A 24 h incubation time with titanates was chosen to maximize the exposure to the titanates without risking a culture deteriorating from overgrowth.
(§3) For metal ions alone, 5 μL of a concentrated stock solution of the respective metal salt were added to 95 μL of the bacterial cultures (n=8 per condition). […] The cultures were mixed to ensure contact between the titanates and the bacteria. MST and APT suspensions were thoroughly mixed prior to addition to ensure accurate transfer of the particles. […] Titanate-bacterial cultures were incubated for 24 h under the conditions appropriate for each type of bacterium. After 24 h, the cultures were thoroughly mixed prior to reading the OD. Control cultures for experiments included cultures of media alone (no titanates or bacteria), titanates in media (no bacteria), and bacteria alone (no titanates). […] All experiments were repeated in triplicate to assure reproducibility.
(§4) The initial and final mean and standard deviation OD readings were plotted as a function of concentration. The titanate only controls were also plotted as a baseline. Cultures were statistically compared (two-sided Student's t-tests, α=0.05) to determine significant effects of the titanates (with or without added metal) on bacterial growth.
(§5) A similar strategy was used to assess the antibacterial action of the metal ions alone, so that the relative efficacy of the titanates alone and titanate metal complexes could be compared to the metal ions alone. The delivery potential of metal ion from the titanate-metal complexes was determined by calculating the total metal mass complexed with the titanates at each titanate particle concentration.

[4] = system: bacteria in Table 1; assay: Planktonic bacterial growth suppression, statements pooled over the species tested; type: cell-based, oral bacteria
Description: as §1
One hundred μL of the initial culture was plated in 96 well plate format number of bacterial cells present in a given volume of culture was determined by correlating OD reading of bacterial culture at 595 nm to the number of cells present. […] Prior to exposing bacteria to metal-titanate compounds, appropriate dilutions of each bacterial species were made so that metal-titanate compounds are consistently exposed to 3.56E9 bacteria for all species tested. […]
For metal ions alone, 5 μL of a concentrated stock solution of the respective metal salt were added to 95 μL of the bacterial cultures (n=8 per condition). […] After 24 h, the cultures were thoroughly mixed prior to reading the OD. […]
The initial and final mean and standard deviation OD readings were plotted as a function of concentration. […]

[5] = system: Prevotella intermedia (Pi); assay: Planktonic bacterial growth suppression (OD at 595 nm, 24 h exposure); type: cell-based; conditions: concentrations ≦1500 μM
Description: as §1, §2, §3, §4, §5

[Cl][Pt][Cl] [Pt(II), PtCl2]
Aqueous solubility of the chloride salt [1]: limited aqueous solubility

[Cl][Pd][Cl] [Pd(II), PdCl2]
Inhibitory concentration for mammalian cells [2]: 100 to 300 µM | An growth suppression by metal ion alone ([3]; >1000 μM): approximately 30%

[Cl][Pt][Cl] [Pt(IV), PtCl2]
Inhibitory concentration for mammalian cells [2]: 25 µM | An growth suppression by metal ion alone ([3]; concentrations ≦750 μM): not suppressed

CC[C@H]1OC(=O)[C@H](C)[C@@H](O[C@H]2C[C@@](C)(OC)[C@@H](O)[C@H](C)O2)[C@H](C)[C@@H](O[C@@H]2O[C@H](C)C[C@H](N(C)C)[C@H]2O)[C@](C)(O)C[C@@H](C)C(=O)[C@H](C)[C@@H](O)[C@]1(C)O [erythromycin]
Bacteriostatic control (Bac-Em) ([4]; bacteria with erythromycin 100 μg/mL, no titanates): behaved as expected

O.O.O.[Cl][Au-]([Cl])([Cl])[Cl].[H+] [Au(III), HAuCl4•3H2O]
Relative potency among the metal ions alone ([4]; metal ions alone, excepting Pt(II)): most potent | Inhibitory concentration for mammalian cells [2]: 60 to 115 µM | Effect of metal ion alone on Pi [5]: no observable effect | An growth suppression by metal ion alone ([3]; >10 μM): completely suppressed
